ChEMBL document CHEMBL1201862, “PubChem BioAssay data set” (2004)
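Interpolation was linear, between the two tested concentrations surrounding the appropriate level; five concentrations were tested over 48 hours in 96-well plates. GI50: concentration for 50% inhibition of growth.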 Active and inactive are the calls of the source. Cut-off read from the data, not from the text of the source: active = GI50 up to about 1.1 µM and inactive = higher.

Columns and labels:
Experiment in all cases: NCI tumour cell line growth inhibition, 48 h
A549 = tested on: A549
NCI/ADR-RES = tested on: NCI/ADR-RES
U-251 = tested on: U-251
SNB-19 = tested on: SNB-19
HOP-92 = tested on: HOP-92
786-0 = tested on: 786-0
LOX IMVI = tested on: LOX IMVI
OVCAR-3 = tested on: OVCAR-3
KM12 = tested on: KM12
RXF 393 = tested on: RXF 393
HL-60 = tested on: HL-60
UO-31 = tested on: UO-31
Malme-3M = tested on: Malme-3M
M14 = tested on: M14
NCI-H522 = tested on: NCI-H522
SF-295 = tested on: SF-295
OVCAR-4 = tested on: OVCAR-4
SNB-75 = tested on: SNB-75
SF-539 = tested on: SF-539

| SMILES | GI50 (A549) | GI50 (NCI/ADR-RES) | GI50 (U-251) | GI50 (SNB-19) | GI50 (HOP-92) | GI50 (786-0) | GI50 (LOX IMVI) | GI50 (OVCAR-3) | GI50 (KM12) | GI50 (RXF 393) | GI50 (HL-60) | GI50 (UO-31) | GI50 (Malme-3M) | GI50 (M14) | GI50 (NCI-H522) | GI50 (SF-295) | GI50 (OVCAR-4) | GI50 (SNB-75) | GI50 (SF-539) |
| --- | --- | --- | --- | --- | --- | --- | --- | --- | --- | --- | --- | --- | --- | --- | --- | --- | --- | --- | --- |
| Cc1ccc(S(=O)(=O)NC(=O)NC(Cc2ccc(O)c(O)c2)C(=O)O)cc1 (stereo not given) | > 100 µM (inactive) | > 100 µM (inactive) | > 100 µM (inactive) | > 100 µM (inactive) | 80.5 µM (inactive) | 20.4 µM (inactive) | > 100 µM (inactive) | > 100 µM (inactive) | > 100 µM (inactive) | 14 µM (inactive) | > 100 µM (inactive) | > 100 µM (inactive) | > 100 µM (inactive) | > 100 µM (inactive) | > 100 µM (inactive) | > 100 µM (inactive) | > 100 µM (inactive) | – | – |
| CC(=O)C(CN1CCOCC1)C(c1ccccc1)c1c(O)c2ccccc2oc1=O (stereo not given) | > 100 µM (inactive) | > 100 µM (inactive) | > 100 µM (inactive) | > 100 µM (inactive) | 32 µM (inactive) | > 100 µM (inactive) | > 100 µM (inactive) | > 100 µM (inactive) | > 100 µM (inactive) | 31.6 µM (inactive) | 41.3 µM (inactive) | > 100 µM (inactive) | 80.9 µM (inactive) | > 100 µM (inactive) | > 100 µM (inactive) | > 100 µM (inactive) | > 100 µM (inactive) | > 100 µM (inactive) | > 100 µM (inactive) |
| O=C(CC(C(=O)c1cccs1)c1ccsc1)c1cccs1 (stereo not given) | 91 µM (inactive) | 31.9 µM (inactive) | > 100 µM (inactive) | > 100 µM (inactive) | 94.2 µM (inactive) | > 100 µM (inactive) | – | 45 µM (inactive) | 71.3 µM (inactive) | 53.6 µM (inactive) | – | 51.3 µM (inactive) | > 100 µM (inactive) | > 10 µM (inactive) | 54.2 µM (inactive) | 42 µM (inactive) | 79.8 µM (inactive) | 12.8 µM (inactive) | > 100 µM (inactive) |
| O=C(ON=C1c2ccccc2C(Br)C(Br)c2ccccc21)c1cc([N+](=O)[O-])cc([N+](=O)[O-])c1 (stereo not given) | 30.4 µM (inactive) | 19.6 µM (inactive) | 15.8 µM (inactive) | 24.1 µM (inactive) | 16 µM (inactive) | 14.9 µM (inactive) | 13.9 µM (inactive) | 19.9 µM (inactive) | 19.4 µM (inactive) | 19.6 µM (inactive) | 0.158 µM (active) | – | 18.5 µM (inactive) | 17.6 µM (inactive) | 5.3 µM (inactive) | 35 µM (inactive) | 22.2 µM (inactive) | 13.9 µM (inactive) | 18 µM (inactive) |
| Cc1ccc(/C=N/n2c(-c3ccc(C)cc3)n[nH]c2=O)cc1 | 41 µM (inactive) | 59.6 µM (inactive) | 35.3 µM (inactive) | 77.4 µM (inactive) | 55.8 µM (inactive) | 29.6 µM (inactive) | – | > 100 µM (inactive) | > 100 µM (inactive) | 23.1 µM (inactive) | > 100 µM (inactive) | 75 µM (inactive) | 80.5 µM (inactive) | 68.4 µM (inactive) | > 100 µM (inactive) | 48.8 µM (inactive) | 40 µM (inactive) | > 100 µM (inactive) | 50.4 µM (inactive) |
| COc1ccc(CC(=O)N2CCC3(C)CC(=O)CC=C23)cc1OC (stereo not given) | > 100 µM (inactive) | > 100 µM (inactive) | > 100 µM (inactive) | > 100 µM (inactive) | > 100 µM (inactive) | > 100 µM (inactive) | > 100 µM (inactive) | > 100 µM (inactive) | > 100 µM (inactive) | > 100 µM (inactive) | > 100 µM (inactive) | > 100 µM (inactive) | > 100 µM (inactive) | > 100 µM (inactive) | 33.6 µM (inactive) | > 100 µM (inactive) | > 100 µM (inactive) | – | > 100 µM (inactive) |
| C/C=C/C(CC(O)(C(F)(F)F)C(F)(F)F)=N/NC(N)=S | > 10 µM (inactive) | > 10 µM (inactive) | > 10 µM (inactive) | > 10 µM (inactive) | > 10 µM (inactive) | > 10 µM (inactive) | > 10 µM (inactive) | > 10 µM (inactive) | > 10 µM (inactive) | > 10 µM (inactive) | > 10 µM (inactive) | – | > 10 µM (inactive) | > 10 µM (inactive) | > 10 µM (inactive) | > 10 µM (inactive) | > 10 µM (inactive) | > 10 µM (inactive) | > 10 µM (inactive) |
